Results taken from paper PMC3601065 (PLoS ONE, 2013).
Where no end group is shown, it is not given here.

Experiments:
[1] = tested on: T2 target cells
[2] = target: HLA-A*0201 (Homo sapiens, UniProt P04439, D140Y/D185E/D98H/E176V/E277Q/G131W/G231S/I119V/I121R/I166T/I218V/L300P/L318F/N151K/N90K/P208A/P217A/Q86G/Q94H/R138H/R169H/T345S); assay: biochemical; assay type: binding

Sequence | cytotoxicity of peptide-specific CD8^+ T cells [1] | IC50 [2] [nM]
ILDAHSLYL [IL9] | highly cytotoxic | 1.3
VLSEWLPVT [VT9] | highly cytotoxic | 15
